These results are taken from patent publication US9706772B2, “Method for fungicidal and/or bactericidal treatment of resistant strains using essential oil(s)” (XEDA INTERNATIONAL, priority 2011, dated 2017).

For assay [1], the system named is Monilinia fructicola Strain resistant to Pyrimethanil. Put plainly: In-vitro inhibition of growth on PDA Petri dishes. The assay is classed as cell-based. As to conditions: dose not stated. On the procedure: (§1) The samples were added to the artificial media and gently mixed before solidification of the Agar solution.
(§2) A small amount of fungal spores is placed in the centre of the potato dextrose agar (PDA) in the Petri dishes at 25°±1° C. for 5/6 days. At the end of the incubation period, we measure the inhibition of the halo that is formed in comparison with the untreated PDA Petri dishes (control).
(§3) The results are indicated as a percentage of the incidence of the disease and the efficacy percentage of the products tested.

Assay [2] has as its system strains of Penicillium expansum resistant to pyrimethanil. Put plainly: Efficacy of compositions on Gala apples, FIG. 1. Particulars: FIG. 1, "Gala" apples; over the doses shown. The class given is in vivo. From the text:
These compositions have been tested on various fungi or bacteria strains, such as illustrated in FIGS. 1 and 2. Unless otherwise indicated, the doses listed in the FIGS. 1 and 2 are given in ppm of active ingredient; the indications in ml/l refer to the quantity of composition C. […] Indeed it is observed that there is a synergistic effect between the fungicide and essential oils/terpene agents.

The test system of assay [3] is Botrytis spp. Strain resistant to TBZ. Put plainly: In-vitro inhibition of growth on PDA Petri dishes. The assay is classed as cell-based. On the procedure:
as §1, §2, §3

A further assay relates to Pennicillum spp. As to the kind of experiment: In-vitro inhibition of growth on PDA Petri dishes. The class given is cell-based. On the procedure:
as §1, §2, §3

Assay [4] concerns Pennicillum spp. Strain resistant to Imazalil. Put plainly: In-vitro inhibition of growth on PDA Petri dishes. The class given is cell-based. On the procedure: as §1, §2, §3

Structures are written as SMILES.

Consider `Cc1cc(C)nc(Nc2ccccc2)n1` [pyrimethanil], for which the efficacy in assay [1] is on record as 45%; in assay [2] it was “at most 60%”.

For the molecule `Cc1ccc(C(C)C)cc1O` [Carvacrol], the “Efficacy (%)” value in assay [3] (Dose 100 ml/hl), in assay [3] (Dose 300 ml/hl), in assay [3] (Dose 500 ml/hl) and in assay [3] (Dose 1,000 ml/hl) was 100% throughout. Besides, the “Incidence of Disease (%)” value in assay [3] (Dose 100 ml/hl), in assay [3] (Dose 300 ml/hl), in assay [3] (Dose 500 ml/hl) and in assay [3] (Dose 1,000 ml/hl) was 0% throughout. The “control (in words)” value in assay [3] (at all doses tested) is “total control”.

On to `Cc1ccc(C(C)C)c(O)c1` [Thymol], for which the “Efficacy (%)” value in the assay with Pennicillum spp. (Dose 100 ml/hl) was 20%; with Pennicillum spp. (Dose 300 ml/hl) it was 50%; in the assay with Pennicillum spp. (Dose 500 ml/hl), 70%; in the assay on Pennicillum spp. (Dose 1,000 ml/hl), 70%; in assay [4] (Dose 100 ml/hl), 70%; in assay [4] (Dose 300 ml/hl), 70%. Further, the results for the “Efficacy (%)” value in assay [4] (Dose 500 ml/hl) and in assay [4] (Dose 1,000 ml/hl) were 80% and 90%, respectively. For the same molecule, the “Incidence of Disease (%)” value with Pennicillum spp. (Dose 100 ml/hl) worked out at 80%; with Pennicillum spp. (Dose 300 ml/hl), 50%; in the assay on Pennicillum spp. (Dose 500 ml/hl), 30%; in the assay with Pennicillum spp. (Dose 1,000 ml/hl), 30%; in assay [4] (Dose 100 ml/hl), 30%; in assay [4] (Dose 300 ml/hl), 30%. Moreover, the “Incidence of Disease (%)” value turned out to be 20% in assay [4] (Dose 500 ml/hl) and 10% in assay [4] (Dose 1,000 ml/hl).
